target: T1, small-conductance Ca2+-activated K+ channels (SK channels, subtype 2) (Homo sapiens, UniProt Q9H2S1); assay: whole-cell patch-clamp of ionic current through SK2 channels in HEK293 cells (SC100); assay type: cell-based; conditions: concentration that increases the basal current by 100%; HEK293 cells expressing SK2 channels
T1 construct: expressed in transfected cells; host or cells: HEK293
Outline: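 SC100, the concentration doubling basal current (a 100% increase), was taken from SK2 currents recorded by whole-cell patch-clamp in SK2-expressing HEK293 cells.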

| SC100 | SMILES |
| --- | --- |
| + (+ means >1 uM) | Cc1ccn(-c2nc(NC3CCC(F)(F)CC3)cc(C3COCCC3O)n2)n1 (stereo not shown) [Compound 232, 3-(6-((4,4-difluorocyclohexyl)amino)-2-(3-methyl-1H-pyrazol-1-yl)pyrimidin-4-yl)tetrahydro-2H-pyran-4-ol] |
| + (+ means >1 uM) | CN(C)C(=O)C1CC1c1cc(NC2CCC(F)(F)CC2)nc(-n2ccc(CF)n2)n1 (stereo not shown) [Compound 308, 2-(6-((4,4-difluorocyclohexyl)amino)-2-(3-(fluoromethyl)-1H-pyrazol-1-yl)pyrimidin-4-yl)-N,N-dimethylcyclopropane-1-carboxamide] |
| ++ (++ means 200 nM-1000 nM) | Cc1cc(C)n(-c2cc(OCc3cnnn3C)cc(NC3CCC(F)(F)CC3)n2)n1 [Compound 268, N-(4,4-difluorocyclohexyl)-6-(3,5-dimethyl-1H-pyrazol-1-yl)-4-((1-methyl-1H-1,2,3-triazol-5-yl)methoxy)pyridin-2-amine] |
| ++ (++ means 200 nM-1000 nM) | COC(=O)N1CC(Oc2cc(NC3CCC(F)(F)CC3)nc(-n3cc(C)c(C(F)F)n3)n2)C1 [Compound 318, methyl 3-((6-((4,4-difluorocyclohexyl)amino)-2-(3-(difluoromethyl)-4-methyl-1H-pyrazol-1-yl)pyrimidin-4-yl)oxy)azetidine-1-carboxylate] |
| ++ (++ means 200 nM-1000 nM) | O=C(N1CC(Oc2cc(NC3CCC(F)(F)CC3)nc(-n3ccc(C(F)F)n3)n2)C1)C(F)(F)F [Compound 299, 1-(3-((6-((4,4-difluorocyclohexyl)amino)-2-(3-(difluoromethyl)-1H-pyrazol-1-yl)pyrimidin-4-yl)oxy)azetidin-1-yl)-2,2,2-trifluoroethan-1-one] |
| ++ (++ means 200 nM-1000 nM) | Cc1cc(NC2CCC(F)(F)CC2)nc(-n2nc(CF)cc2C)n1 [Compound 256, N-(4,4-difluorocyclohexyl)-2-(3-(fluoromethyl)-5-methyl-1H-pyrazol-1-yl)-6-methylpyrimidin-4-amine] |
| + (+ means >1 uM) | CCc1cnc(-n2nc(C)cc2C)nc1NC1CCC(F)(F)CC1 [Compound 111, N-(4,4-difluorocyclohexyl)-2-(3,5-dimethyl-1H-pyrazol-1-yl)-5-ethylpyrimidin-4-amine] |
| ++ (++ means 200 nM-1000 nM) | Cc1cc(C)n(-c2cc(N3CCNC(C(N)=O)C3)nc(NC3CCC(F)(F)CC3)n2)n1 (stereo not shown) [Compound 106, 4-(2-((4,4-difluorocyclohexyl)amino)-6-(3,5-dimethyl-1H-pyrazol-1-yl)pyrimidin-4-yl)piperazine-2-carboxamide] |
| ++ (++ means 200 nM-1000 nM) | CCc1csc(-c2nc(C)cc(NC3CCC(F)(F)CC3)n2)n1 [Compound 279, N-(4,4-difluorocyclohexyl)-2-(4-ethylthiazol-2-yl)-6-methylpyrimidin-4-amine] |
| ++ (++ means 200 nM-1000 nM) | Cc1cc(C)n(-c2nc(NC3CCC(F)(F)CC3)cc(N3CCO[C@H](CO)C3)n2)n1 (single isomer, unassigned) [Compound 113, (−)-(4-(6-((4,4-difluorocyclohexyl)amino)-2-(3,5-dimethyl-1H-pyrazol-1-yl)pyrimidin-4-yl)morpholin-2-yl)methanol] |
| ++ (++ means 200 nM-1000 nM) | CCN1CCCCC(Nc2cc(NC3CCC(F)(F)CC3)nc(-n3ccc(C)n3)n2)C1 (stereo not shown) [Compound 158, N4-(4,4-difluorocyclohexyl)-N6-(1-ethylazepan-3-yl)-2-(3-methyl-1H-pyrazol-1-yl)pyrimidine-4,6-diamine] |
| + (+ means >1 uM) | Cc1cc(C)n(-c2nc(CN3CCOCC3)cc(NC3CCC(F)(F)CC3)n2)n1 [Compound 176, N-(4,4-difluorocyclohexyl)-2-(3,5-dimethyl-1H-pyrazol-1-yl)-6-(morpholinomethyl)pyrimidin-4-amine] |
| ++ (++ means 200 nM-1000 nM) | CC(=O)N1CCN(c2cc(N(C)C3CCC(F)(F)CC3)nc(-n3nc(C)cc3C)n2)CC1 [Compound 132, 1-(4-(6-((4,4-difluorocyclohexyl)(methyl)amino)-2-(3,5-dimethyl-1H-pyrazol-1-yl)pyrimidin-4-yl)piperazin-1-yl)ethan-1-one] |

same assay, conditions: whole-cell patch-clamp, HEK293 cells expressing SK2 channels; concentration that increases the basal current by 100%

| SMILES | SC100 (μM) |
| --- | --- |
| Cc1ccc(-c2nc(NC3CCC(F)(F)CC3)cc(C(C)O)n2)o1 (stereo not shown) [IN10971-088-P1, 1-(6-((4,4-difluorocyclohexyl)amino)-2-(5-methylfuran-2-yl)pyrimidin-4-yl) ethan-1-ol] | + (+ means >1 uM) |
| Cc1csc(-c2nc(NC3CCCC(C(F)(F)F)C3)cc(C(C)O)n2)n1 (stereo not shown) [IN10880-085-P1] | + (+ means >1 uM) |
| COc1cc(NC2CCCCC2)nc(-c2nc(C)cs2)n1 [IN11067-035-P1] | ++ (++ means 200 nM-1000 nM) |
| Cc1csc(-c2cc(OCc3cnnn3C)cc(NC3CCC(F)(F)CC3)n2)n1 [NSSy5717] | +++ (+++ means <200 nM) |
| Cc1ccn(-c2nc(NC3CCC(F)(F)CC3)cc(S(C)(=O)=O)n2)n1 [IN10973-041-P1] | + (+ means >1 uM) |

Continued, values first:

| SC100 (μM) | SMILES |
| --- | --- |
| ++ (++ means 200 nM-1000 nM) | Cc1csc(-c2nc(NC3CCC(F)(F)CC3)cc(C(C)C#N)n2)n1 (stereo not shown) [IN11104-094-P1, 2-(6-((4,4-difluorocyclohexyl)amino)-2-(4-methylthiazol-2-yl)pyrimidin-4-yl) propanenitrile] |
| ++ (++ means 200 nM-1000 nM) | CC(=O)N1CCN(c2cc(-n3ccc(C4CC4)n3)nc(NC3CCC(F)(F)CC3)n2)CC1 [NSSy6909, 1-(4-(6-(3-cyclopropyl-1H-pyrazol-1-yl)-2-((4,4-difluorocyclohexyl)amino)pyrimidin-4-yl)piperazin-1-yl)ethan-1-one] |
| ++ (++ means 200 nM-1000 nM) | COC(=O)N1CC(Oc2cc(NC3CCC(F)(F)CC3)nc(-n3ccc(F)n3)n2)C1 [NSSy6162] |
| + (+ means >1 uM) | COC(C)c1cc(-n2nc(C)cc2C)nc(NC2CCC(F)(F)CC2)n1 (stereo not shown) [NSSy6612] |
| + (+ means >1 uM) | Cc1cc(C)n(-c2nc(N3CCOCC3)cc(N(O)C3CCC(F)(F)CC3)n2)n1 [NSSy6386] |
| ++ (++ means 200 nM-1000 nM) | Cc1csc(-c2cc(N3CCOCC3)cc(NC3CC=CCC3)n2)n1 (stereo not shown) [NSSy5655, N-(cyclohex-3-en-1-yl)-6-(4-methylthiazol-2-yl)-4-morpholinopyridin-2-amine] |
| + (+ means >1 uM) | N#Cc1ccn(-c2nc(NC3CCC(F)(F)CC3)cc(N3CCOCC3)n2)n1 [IN11177-068-P1] |
| ++ (++ means 200 nM-1000 nM) | Cc1csc(-c2nc(NC3CCC(F)(F)CC3)cc(N3CCN4C(=O)OCC4C3)n2)n1 (stereo not shown) [NSSy5774] |
| ++ (++ means 200 nM-1000 nM) | COCc1cc(NC2CCC(F)(F)CC2)nc(-n2ccc(C)n2)c1 [NSSy5860] |
| +++ (+++ means <200 nM) | COC[C@H]1CN(c2cc(NC3CCC(F)(F)CC3)nc(-c3nc(C)cs3)n2)CCO1 [NSSy5796] |
| + (+ means >1 uM) | Cc1ccn(-c2cc(C#N)nc(NC3CCC(F)(F)CC3)n2)n1 [NSSy6722, 2-((4,4-difluorocyclohexyl)amino)-6-(3-methyl-1H-pyrazol-1-yl)pyrimidine-4-carbonitrile] |
| + (+ means >1 uM) | COC(=O)N1CC(Oc2cc(NC3CCC(F)(F)CC3)[n+]([O-])c(-n3ccc(C)n3)n2)C1 [NSSy6072, 6-((4,4-difluorocyclohexyl)amino)-4-((1-(methoxycarbonyl)azetidin-3-yl)oxy)-2-(3-methyl-1H-pyrazol-1-yl)pyrimidine 1-oxide] |
| ++ (++ means 200 nM-1000 nM) | CNc1cc(-n2ccc(C)n2)nc(NC2CCC(F)(F)CC2)n1 [NSSy6688] |
| + (+ means >1 uM) | Cc1ccn(-c2nc(NC3CCC(F)(F)CC3)cc(OC3CNC3)n2)n1 [NSSy5648, 6-(azetidin-3-yloxy)-N-(4,4-difluorocyclohexyl)-2-(3-methyl-1H-pyrazol-1-yl)pyrimidin-4-amine] |
| ++ (++ means 200 nM-1000 nM) | Cc1nn(-c2nc(NC3CCC(F)(F)CC3)cc(N3CCOCC3)n2)cc1F [IN11216-050-P1] |
| ++ (++ means 200 nM-1000 nM) | OCc1cc(NC2CCC(F)(F)CC2)nc(-n2ccc(C(F)(F)F)n2)c1 [IN11133-097-P1, (2-((4,4-difluorocyclohexyl)amino)-6-(3-(trifluoromethyl)-1H-pyrazol-1-yl)pyridin-4-yl) methanol] |
| ++ (++ means 200 nM-1000 nM) | Cc1ccn(-c2cc(CF)cc(NC3CCC(F)(F)CC3)n2)n1 [NSSy5829, N-(4,4-difluorocyclohexyl)-4-(fluoromethyl)-6-(3-methyl-1H-pyrazol-1-yl)pyridin-2-amine] |
| + (+ means >1 uM) | Cc1nsc(-c2nc(NC3CCC(F)(F)CC3)cc(N3CCOCC3)n2)n1 [NSSy5832] |
| ++ (++ means 200 nM-1000 nM) | COCc1cc(NC2CCC(F)(F)CC2)nc(-n2nc(C)cc2C)c1 [NSSy6861, N-(4,4-difluorocyclohexyl)-6-(3,5-dimethyl-1H-pyrazol-1-yl)-4-(methoxymethyl)pyridin-2-amine] |
| + (+ means >1 uM) | CC(=O)N1CCN(c2cc(-n3ccc(CO)n3)nc(NC3CCC(F)(F)CC3)n2)CC1 [NSSy6931, 1-(4-(2-((4,4-difluorocyclohexyl)amino)-6-(3-(hydroxymethyl)-1H-pyrazol-1-yl)pyrimidin-4-yl)piperazin-1-yl)ethan-1-one] |
| + (+ means >1 uM) | Cc1ccn(-c2cc(C(O)c3cnco3)cc(NC3CCC(F)(F)CC3)n2)n1 (stereo not shown) [NSSy6846] |
| + (+ means >1 uM) | COc1cc(NC2CCCSC2)nc(-c2nc(C)cs2)n1 (stereo not shown) [IN11137-018-P1] |
| + (+ means >1 uM) | Cc1csc(-c2nc(N[C@@H]3CCCC[C@H]3F)cc(N3CCOCC3)n2)n1 [IN11140-086-P1] |
| ++ (++ means 200 nM-1000 nM) | Cc1ccn(-c2cc(OCc3ncco3)cc(NC3CCC(F)(F)CC3)n2)n1 [IN11177-043-P1] |
| ++ (++ means 200 nM-1000 nM) | COc1cc(NC2CCC(F)(F)CC2)nc(-n2ccc(C3CC3)n2)n1 [NSSy6850] |

— patent US10774064B2 (Cadent Therapeutics, Inc., priority 2016, dated 2020)
